“Also recorded” adds a separate entry of the source. Like-named read-outs stand apart in the source and are kept apart here.
What was measured:
Type in all cases: cell-based
MCF10A = assay: Single drug treatments, viability/toxicity; settings: Homo sapiens, MCF-10A, read-out: MCF10A IC50
Excerpt: (§1) In our experiments, breast cancer cells were exemplified by MCF7 (an epithelial breast cancer cell line); non-tumorigenic breast cells were exemplified by the epithelial cell line MCF10A. We provided GPT4 with a prompt that had several aims:
(§2) In an additional experiment, 12 drugs were retested from the first round (n ≥ 3 replicates). An ANOVA two-way test with three replicates was used to calculate the significance of changes to viability compared with the internal control drug allopurinol for both cell lines (electronic supplementary material, figures S6 and S7). Two of the retested drugs were initially used as positive controls for MCF7 (doxorubicin and fulvestrant).

MCF7 [1] = assay: Single drug treatments, viability/toxicity; settings: for toxicity towards MCF7: doses up to 25 µM
MCF7 [2] = assay: Single drug treatments, viability/toxicity; settings: for IC50: Homo sapiens, MCF7, retest of drugs from first round, n ≥ 3 replicates, MCF7; for reduction of viability of MCF7: two-way ANOVA vs allopurinol, concentrations up to 3.84 µM
Excerpt: as §1, §2

MCF7 versus MCF10A = assay: Single drug specificity towards MCF7 compared with MCF10A; settings: first round, MCF7 versus MCF10A viability
[3] = single drug, first round, maximum dose 25 µM
[4] = Homo sapiens, MCF7, single drug, first round, maximum dose 25 µM, read-out: MCF7 IC50
[5] = Homo sapiens, MCF7, read-out: MCF7 IC50

| SMILES | IC50 (MCF10A; [3]) [µM] | IC50 (MCF7 [1]; [4]) [µM] | toxicity towards MCF7 (MCF7 [1]; single drug, first round) | other results |
| --- | --- | --- | --- | --- |
| Cc1ncc([N+](=O)[O-])n1CCO [metronidazole] | > 25 | > 25 |  |  |
| CC(=O)c1c(C)c2cnc(Nc3ccc(N4CCNCC4)cn3)nc2n(C2CCCC2)c1=O [palbociclib] | > 25 | > 25 |  |  |
| COc1cccc2c1C(=O)c1c(O)c3c(c(O)c1C2=O)C[C@@](O)(C(=O)CO)C[C@@H]3O[C@H]1C[C@H](N)[C@H](O)[C@H](C)O1 [doxorubicin] |  |  |  | IC50 (MCF7 [2]): 0.3 µM; reduction of viability of MCF7 (MCF7 [2]; retest n ≥ 3): also targeted MCF7; IC50 (MCF7 [1]; single drug, first round, maximum dose 25 µM, read-out: MCF7 IC50): < 25 µM |
| CCN(CC)CCCC(C)Nc1ccnc2cc(Cl)ccc12 (stereo not drawn) [chloroquine] |  |  | showed toxicity towards MCF7 | IC50 (MCF10A): > 25 µM; IC50 (MCF7 [1]; Homo sapiens, MCF7): 10.6 µM; IC50 (MCF7 [1]; [5]): > 25 µM |
| CC(C)c1c(C(=O)Nc2ccccc2)c(-c2ccccc2)c(-c2ccc(F)cc2)n1CC[C@@H](O)C[C@@H](O)CC(=O)O [atorvastatin] | 3.79 | > 25 |  |  |
| CCCc1nn(C)c2c(=O)[nH]c(-c3cc(S(=O)(=O)N4CCN(C)CC4)ccc3OCC)nc12 [sildenafil] | > 25 | > 25 | showed toxicity towards MCF7 |  |
| C[C@H]1O[C@H](O[C@H]2[C@H](O)[C@@H](O)[C@@H](O[C@H]3[C@H](O)[C@@H](O)C(O)O[C@@H]3CO)O[C@@H]2CO)[C@H](O)[C@@H](O)[C@@H]1N[C@H]1C=C(CO)[C@@H](O)[C@H](O)[C@H]1O (stereo partly drawn) [acarbose] | > 25 | > 25 |  |  |
| CCC(C)(C)C(=O)O[C@H]1C[C@@H](C)C=C2C=C[C@H](C)[C@H](CC[C@@H]3C[C@@H](O)CC(=O)O3)[C@H]21 [simvastatin] | 7.17 | 5.63 | showed toxicity towards MCF7 |  |
| CCN(CC)C(=S)SSC(=S)N(CC)CC [disulfiram] | > 25 | 0.204 |  | IC50 (MCF7 [2]): 0.059 µM; specificity towards MCF7 (MCF7 versus MCF10A): high specificity towards MCF7 |
| CC(C)NCC(O)COc1ccc(CC(N)=O)cc1 (stereo not drawn) [atenolol] | > 25 | > 25 |  |  |
| O=C(O)COCCN1CCN(C(c2ccccc2)c2ccc(Cl)cc2)CC1 (stereo not drawn) [cetirizine] | > 25 | > 25 |  |  |
| CCN(CC)CCCC(C)Nc1c2ccc(Cl)cc2nc2ccc(OC)cc12 (stereo not drawn) [quinacrine] | 10.2 | 3.85 | showed toxicity towards MCF7 | IC50 (MCF7 [2]): 4.71 µM; reduction of viability of MCF7 (MCF7 [2]; retest n ≥ 3): significantly reduced the viability of MCF7; specificity towards MCF7 (MCF7 versus MCF10A): high specificity towards MCF7 |
| COC(=O)Nc1nc2ccc(C(=O)c3ccccc3)cc2[nH]1 [mebendazole] | 15 | > 25 | showed toxicity towards MCF7 | specificity towards MCF7 (MCF7 versus MCF10A): high specificity towards MCF7 |
| OCCN(CCO)c1nc(N2CCCCC2)c2nc(N(CCO)CCO)nc(N3CCCCC3)c2n1 [dipyridamole] | > 25 | > 25 |  | reduction of viability of MCF7 (MCF7 [2]; retest n ≥ 3): significantly reduced the viability of MCF7; specificity towards MCF7 (MCF7 versus MCF10A): high specificity towards MCF7 |
| CCC(C)n1ncn(-c2ccc(N3CCN(c4ccc(OCC5COC(Cn6cncn6)(c6ccc(Cl)cc6Cl)O5)cc4)CC3)cc2)c1=O (stereo not drawn) [itraconazole] | > 25 | > 25 | showed toxicity towards MCF7 |  |
| CCN(CCO)CCCC(C)Nc1ccnc2cc(Cl)ccc12 (stereo not drawn) [hydroxychloroquine] | > 25 | > 25 | showed toxicity towards MCF7 | toxicity to MCF7 (MCF7 [2]; retest n ≥ 3, hydroxychloroquine statement at 25 µM): persistent and substantial |
| CC12CC3CC(C)(C1)CC(N)(C3)C2 [memantine] | > 25 | > 25 |  |  |
| Oc1ncnc2[nH]ncc12 [allopurinol] | > 25 | > 25 |  |  |
| O=P1(N(CCCl)CCCl)NCCCO1 (stereo not drawn) [cyclophosphamide] |  |  |  | IC50 (MCF10A): > 25 µM; IC50 (MCF7 [1]; [5]): > 25 µM |
| C[C@]12CC[C@@H]3c4ccc(O)cc4C[C@@H](CCCCCCCCC[S+]([O-])CCCC(F)(F)C(F)(F)F)[C@H]3[C@@H]1CC[C@@H]2O (stereo partly drawn) [fulvestrant] | > 25 | > 25 |  | reduction of viability of MCF7 (MCF7 [2]; retest n ≥ 3): also targeted MCF7; specificity towards MCF7 (MCF7 versus MCF10A): showed preference for MCF7 |
| O=C(Nc1ccc([N+](=O)[O-])cc1Cl)c1cc(Cl)ccc1O [niclosamide] | 0.061 | 0.699 | comparatively high toxicity; also recorded: showed toxicity towards MCF7 | IC50 (MCF7 [2]): 1.22 µM; reduction of viability of MCF7 (MCF7 [2]; retest n ≥ 3): significantly reduced the viability of MCF7 |
| NS(=O)(=O)c1cc(C(=O)O)c(NCc2ccco2)cc1Cl [furosemide] | > 25 | > 25 |  |  |
| COc1ccc2[nH]c([S+]([O-])Cc3ncc(C)c(OC)c3C)nc2c1 (stereo not drawn) [omeprazole] | > 25 | > 25 |  |  |
| CN/C(=N/CCSCc1nc[nH]c1C)NC#N [cimetidine] | > 25 | > 25 | showed toxicity towards MCF7 |  |
| Cc1ccc(-c2cc(C(F)(F)F)nn2-c2ccc(S(N)(=O)=O)cc2)cc1 [celecoxib] | 22.6 | 5.33 | showed toxicity towards MCF7 |  |

Source: article PMC12134935, “Scientific hypothesis generation by large language models: laboratory validation in breast cancer treatment” (Journal of the Royal Society Interface, 2025)
